Measured values as given in PMC11822212, “High-throughput screening identifies Aurora kinase B as a critical therapeutic target for Merkel cell carcinoma” (Nature Communications, 2025).
Read-outs that look alike come from different tables or passages of the source.

What was measured:
[1] = system: six MCC cell lines and four control cell lines; experiment: qHTS cell viability, all 10 cell lines screened; type: cell-based
MCC26 cells (VN-MCC) = experiment: qHTS cell viability (CellTiter-Glo, 72 h; primary and follow-up small molecule screen); type: cell-based, human
[2] = system: VP-MCC cell lines (WAGA, MKL-1, MKL-2); experiment: qHTS cell viability, VP-MCC cell lines as a group (mean AUC, VP.MCC.avg); type: cell-based, human
WAGA cells (VP-MCC) = experiment: qHTS cell viability (CellTiter-Glo, 72 h; primary and follow-up small molecule screen); type: cell-based, human
MCC13 cells (VN-MCC) = experiment: as above; type: cell-based, human
HACAT cells = experiment: qHTS cell viability (CellTiter-Glo, 72 h; primary screen), control cell line; type: cell-based, human
HEK293T cells = experiment: as above; type: cell-based, human
UISO cells (VN-MCC) = experiment: qHTS cell viability (CellTiter-Glo, 72 h; primary and follow-up small molecule screen); type: cell-based, human
NIH-3T3 cells = experiment: qHTS cell viability (CellTiter-Glo, 72 h; primary screen), control cell line; type: cell-based, mouse
[3] = system: control cell lines (HACAT, HEK293T, CRL-7250, NIH-3T3); experiment: qHTS cell viability, control cell lines as a group (mean AUC, Control.avg); type: cell-based
MKL-2 cells (VP-MCC) = experiment: qHTS cell viability (CellTiter-Glo, 72 h; primary and follow-up small molecule screen); type: cell-based, human
MKL-1 cells (VP-MCC) = experiment: as above; type: cell-based, human
CRL-7250 cells = experiment: qHTS cell viability (CellTiter-Glo, 72 h; primary screen), control cell line; type: cell-based
[4] = system: MCC cell lines (WAGA, MKL-1, MKL-2, MCC13, MCC26, UISO); experiment: qHTS cell viability, all six MCC cell lines as a group (mean AUC, MCC.avg); type: cell-based, human
[5] = system: VN-MCC cell lines (MCC13, MCC26, UISO); experiment: qHTS cell viability, VN-MCC cell lines as a group (mean AUC, VN.MCC.avg); type: cell-based, human
[6] = MIPE library, 11-point DRC, sheet S2E
[7] = MIPE library, 11-point DRC, control cell line, sheet S2E
[8] = NPC library, therapeutic window: Control avg AUC minus MCC avg AUC
[9] = NPC library, qHTS dose-response AUC, MCC26
[10] = NPC library, mean AUC of VP-MCC cell lines
[11] = NPC library, therapeutic window: Control avg AUC minus VP-MCC avg AUC
[12] = NPC library, qHTS dose-response AUC, WAGA
[13] = NPC library, qHTS dose-response AUC, MCC13
[14] = NPC library, qHTS dose-response AUC, HACAT control
[15] = NPC library, qHTS dose-response AUC, HEK293T control
[16] = NPC library, qHTS dose-response AUC, UISO
[17] = NPC library, qHTS dose-response AUC, NIH3T3 control
[18] = NPC library, mean AUC of control cell lines
[19] = NPC library, qHTS dose-response AUC, MKL2
[20] = NPC library, qHTS dose-response AUC, MKL1
[21] = NPC library, qHTS dose-response AUC, CRL7250 control
[22] = NPC library, mean AUC of six MCC cell lines
[23] = NPC library, mean AUC of VN-MCC cell lines
[24] = NPC library, therapeutic window: Control avg AUC minus VN-MCC avg AUC

## COCC1(CO)C(=O)C2CCN1CC2 (stereo not drawn) [APR-246]
[1]; MIPE library, Control AUC minus MCC AUC (therapeutic window), sheet S2E
  Control-MCC: 36.6717
MCC26 cells (VN-MCC); [6]
  MCC26_AUC: 464.929
[2]; MIPE library, Control AUC minus VP-MCC AUC (therapeutic window), sheet S2E
  Control-VP-MCC: 94.289
[2]; MIPE library, mean AUC of VP-MCC cell lines, sheet S2E
  VP-MCC_Avg_AUC: 335.282
WAGA cells (VP-MCC); [6]
  WAGA_AUC: 329.393
MCC13 cells (VN-MCC); [6]
  MCC13_AUC: 460.845
HACAT cells; [7]
  HACAT_AUC: 475.968
HEK293T cells; [7]
  HEK293T_AUC: 390.353
UISO cells (VN-MCC); [6]
  UISO_AUC: 425.775
NIH-3T3 cells; [7]
  NIH3T3_AUC: 403.185
[3]; MIPE library, mean AUC of control cell lines, sheet S2E
  Control_Avg_AUC: 429.571
MKL-2 cells (VP-MCC); [6]
  MKL2_AUC: 331.652
MKL-1 cells (VP-MCC); [6]
  MKL1_AUC: 344.8
CRL-7250 cells; [7]
  CRL7250_AUC: 448.778
[4]; MIPE library, mean AUC of six MCC cell lines, sheet S2E
  MCC_Avg_AUC: 392.899
[5]; MIPE library, Control AUC minus VN-MCC AUC (therapeutic window), sheet S2E
  Control-VN-MCC: -20.9457
[5]; MIPE library, mean AUC of VN-MCC cell lines, sheet S2E
  VN-MCC_Avg_AUC: 450.517

## CCC(=O)OC1(c2ccccc2)CCN(C)CC1.Cl
[1]
  Control-MCC: 35.9859
MCC26 cells (VN-MCC)
  MCC26_AUC: 456.799
[2]
  Control-VP-MCC: 58.056
  VP-MCC_Avg_AUC: 413.6
WAGA cells (VP-MCC)
  WAGA_AUC: 438.281
MCC13 cells (VN-MCC)
  MCC13_AUC: 464.627
HACAT cells
  HACAT_AUC: 483.91
HEK293T cells
  HEK293T_AUC: 479.823
UISO cells (VN-MCC)
  UISO_AUC: 451.795
NIH-3T3 cells
  NIH3T3_AUC: 479.714
[3]
  Control_Avg_AUC: 471.656
MKL-2 cells (VP-MCC)
  MKL2_AUC: 404.215
MKL-1 cells (VP-MCC)
  MKL1_AUC: 398.305
CRL-7250 cells
  CRL7250_AUC: 443.177
[4]
  MCC_Avg_AUC: 435.67
[5]
  Control-VN-MCC: 13.9158
  VN-MCC_Avg_AUC: 457.741

## O=C(CCCN1CCC(O)(c2ccc(Br)cc2)CC1)c1ccc(F)cc1 [Bromperidol]
[1]; [8]
  Control-MCC: 161.551
MCC26 cells (VN-MCC); [9]
  MCC26_AUC: 508.837
MCC26 cells (VN-MCC); area under the dose-response curve, MCC26 cells, AUC<450 = reduced viability
  MCC26_AUC: 508.837
MCC26 cells (VN-MCC); follow-up screen, MCC26, replicate 1
  Area under the dose-response curve (AUC) MCC26 Replicate 1: 451.5
MCC26 cells (VN-MCC); follow-up screen, MCC26, replicate 2
  Area under the dose-response curve (AUC) MCC26 Replicate 2: 430.2
MCC26 cells (VN-MCC); follow-up screen, MCC26, replicate 3
  Area under the dose-response curve (AUC) MCC26 Replicate 3: 459.8
[2]; [10]
  VP-MCC_Avg_AUC: 121.377
[2]; [11]
  Control-VP-MCC: 345.285
WAGA cells (VP-MCC); [12]
  WAGA_AUC: 81.0002
WAGA cells (VP-MCC); area under the dose-response curve, WAGA cells, AUC<450 = reduced viability
  WAGA_AUC: 81.0002
WAGA cells (VP-MCC); follow-up screen, WAGA, replicate 1
  Area under the dose-response curve (AUC) WAGA Replicate 1: 490.2
WAGA cells (VP-MCC); follow-up screen, WAGA, replicate 2
  Area under the dose-response curve (AUC) WAGA Replicate 2: 473.6
WAGA cells (VP-MCC); follow-up screen, WAGA, replicate 3
  Area under the dose-response curve (AUC) WAGA Replicate 3: 491.6
MCC13 cells (VN-MCC); [13]
  MCC13_AUC: 492.435
MCC13 cells (VN-MCC); area under the dose-response curve, MCC13 cells, AUC<450 = reduced viability
  MCC13_AUC: 492.435
MCC13 cells (VN-MCC); follow-up screen, MCC13, replicate 1
  Area under the dose-response curve (AUC) MCC13 Replicate 1: 481.5
MCC13 cells (VN-MCC); follow-up screen, MCC13, replicate 2
  Area under the dose-response curve (AUC) MCC13 Replicate 2: 447.1
MCC13 cells (VN-MCC); follow-up screen, MCC13, replicate 3
  Area under the dose-response curve (AUC) MCC13 Replicate 3: 475.2
HACAT cells; [14]
  HACAT_AUC: 453.423
HACAT cells; area under the dose-response curve, HACAT control cells, AUC<450 = reduced viability
  HACAT_AUC: 453.423
HEK293T cells; [15]
  HEK293T_AUC: 458.67
HEK293T cells; area under the dose-response curve, HEK293T control cells, AUC<450 = reduced viability
  HEK293T_AUC: 458.67
UISO cells (VN-MCC); [16]
  UISO_AUC: 465.264
UISO cells (VN-MCC); area under the dose-response curve, UISO cells, AUC<450 = reduced viability
  UISO_AUC: 465.264
UISO cells (VN-MCC); follow-up screen, UISO, replicate 1
  Area under the dose-response curve (AUC) UISO Replicate 1: 462.9
UISO cells (VN-MCC); follow-up screen, UISO, replicate 2
  Area under the dose-response curve (AUC) UISO Replicate 2: 471.4
UISO cells (VN-MCC); follow-up screen, UISO, replicate 3
  Area under the dose-response curve (AUC) UISO Replicate 3: 450.6
NIH-3T3 cells; [17]
  NIH3T3_AUC: 484.97
NIH-3T3 cells; area under the dose-response curve, NIH3T3 control cells, AUC<450 = reduced viability
  NIH3T3_AUC: 484.97
[3]; [18]
  Control_Avg_AUC: 466.662
MKL-2 cells (VP-MCC); [19]
  MKL2_AUC: 116.273
MKL-2 cells (VP-MCC); area under the dose-response curve, MKL-2 cells, AUC<450 = reduced viability
  MKL2_AUC: 116.273
MKL-2 cells (VP-MCC); follow-up screen, MKL-2, replicate 1
  Area under the dose-response curve (AUC) MKL-2 Replicate 1: 432.2
MKL-2 cells (VP-MCC); follow-up screen, MKL-2, replicate 2
  Area under the dose-response curve (AUC) MKL-2 Replicate 2: 463.9
MKL-2 cells (VP-MCC); follow-up screen, MKL-2, replicate 3
  Area under the dose-response curve (AUC) MKL-2 Replicate 3: 462.5
MKL-1 cells (VP-MCC); [20]
  MKL1_AUC: 166.857
MKL-1 cells (VP-MCC); area under the dose-response curve, MKL-1 cells, AUC<450 = reduced viability
  MKL1_AUC: 166.857
MKL-1 cells (VP-MCC); follow-up screen, MKL-1, replicate 1
  Area under the dose-response curve (AUC) MKL-1 Replicate 1: 478.5
MKL-1 cells (VP-MCC); follow-up screen, MKL-1, replicate 2
  Area under the dose-response curve (AUC) MKL-1 Replicate 2: 458.4
MKL-1 cells (VP-MCC); follow-up screen, MKL-1, replicate 3
  Area under the dose-response curve (AUC) MKL-1 Replicate 3: 486.1
CRL-7250 cells; [21]
  CRL7250_AUC: 469.585
CRL-7250 cells; area under the dose-response curve, CRL7250 control cells, AUC<450 = reduced viability
  CRL7250_AUC: 469.584
[4]; [22]
  MCC_Avg_AUC: 305.111
[5]; [23]
  VN-MCC_Avg_AUC: 488.845
[5]; [24]
  Control-VN-MCC: -22.1834

## Cl.Cl.Fc1ccc(C(OCCN2CCN(CCCc3ccccc3)CC2)c2ccc(F)cc2)cc1 [GBR 12909 dihydrochloride]
[1]; [8]
  Control-MCC: 43.7909
MCC26 cells (VN-MCC); [9]
  MCC26_AUC: 404.643
[2]; [10]
  VP-MCC_Avg_AUC: 392.686
[2]; [11]
  Control-VP-MCC: 51.7231
WAGA cells (VP-MCC); [12]
  WAGA_AUC: 399.59
MCC13 cells (VN-MCC); [13]
  MCC13_AUC: 436.239
HACAT cells; [14]
  HACAT_AUC: 461.158
HEK293T cells; [15]
  HEK293T_AUC: 425.616
UISO cells (VN-MCC); [16]
  UISO_AUC: 384.769
NIH-3T3 cells; [17]
  NIH3T3_AUC: 436.091
[3]; [18]
  Control_Avg_AUC: 444.409
MKL-2 cells (VP-MCC); [19]
  MKL2_AUC: 375.344
MKL-1 cells (VP-MCC); [20]
  MKL1_AUC: 403.123
CRL-7250 cells; [21]
  CRL7250_AUC: 454.771
[4]; [22]
  MCC_Avg_AUC: 400.618
[5]; [23]
  VN-MCC_Avg_AUC: 408.55
[5]; [24]
  Control-VN-MCC: 35.8586
